How the values were obtained:
[1] = test system: Promega Mid-Range Molecular Weight Markers; test: Recovery of protein using novel recovery method (liquid reservoir in gel); settings: 8% SDS-PAGE gel, slots below bands
Source text: Because Promega Green 1 can be used to stain protein during electrophoretic separations, we determined that proteins separated by gel electrophoresis can be recovered into a liquid reservoir placed in the gel. This is possible only with in-situ stained proteins because it would not be obvious where to place the liquid reservoir otherwise.
Accordingly, an 8% SDS-PAGE gel was made, loaded and run as described in the preceding example. After the run was complete, one of the glass plates encasing the gel was removed and 1.0×0.3 cm slots were excised from the gel immediately below the 97, 66, 40, and 31 kilodalton standards The gel was then placed in a flat bed electrophoresis apparatus which had its buffer chambers filled with 25 mM tris base, 192 mM glycine (electrode buffer) to the level of the central, raised portion of the apparatus. The gel was placed in the apparatus such that the acrylamide gel above the remaining glass plate was filled with electrode buffer. The slots were also filled with electrode buffer and electric connection was made between the gel and the buffer chambers by use of Whatman 3 mM paper wicks soaked in transfer buffer and then 160 V was applied to the apparatus for 2 minutes. After this, the buffer in the slots was removed and placed in 1.5 ml Eppendorf tubes, the slots were refilled with fresh electrode buffer and the voltage was reapplied. […]

bovine serum albumin = test: Analysis of partial proteolytic products (Cleveland analysis)
Procedure: The comparison of proteins by analysis of the products of partial proteolysis using SDS-PAGE electrophoresis has been reported extensively in the literature. This analysis, termed Cleveland analysis, can provide important information on many different types of covalent changes that can occur on proteins.
An 8% SDS-PAGE gel was made as described in Example 5. A 5 μl sample of 1× loading buffer containing 4 μg of Bovine serum albumin previously heated at 95° C. for 5 minutes was placed in several of the wells and electrophoresis was performed as described in Example 5.
A second […] 16% SDS-PAGE gel was made as described in Example 5.
After electrophoresis, segments of the gel containing the BSA sample were excised by use of a razor blade and loaded into three of the sample wells of the second, 16 % gel. Then, 20 μl of 1× loading buffer containing 0.5 μg of Endoprotease Glu C, 0.5 μg of Endoprotease Lys C and 0.1 μg of Alkaline Protease, respectively, was added to individual wells containing the gel slices. Also, 5 μl of a solution of 4 μg of BSA in 1× loading buffer that was previously heated to 95° C. for 15 minutes was placed in a second set of three wells. To each of these three samples was added individual 20 μl solutions containing 0.5 μg of Endoprotease Glu C, 0.5 μg of Endoprotease Lys C, or 0.1 μg of Alkaline Protease, respectively. […]

[2] = test system: Promega Mid Range Molecular Weight Markers; test: Rapid enhancement of the staining of proteins with low residual color in the gel
Procedure: In order to develop such a method, several 10% SDS-PAGE gels made as described in Example 5 were made and loaded with samples made as described therein with the following changes: the sample loading size was reduced to 5 μl; and the solutions were made to contain 1.0, 0.50, 0.25, and 0.125 μg of each protein band of Promega Mid Range Molecular Weight Markers in 5 μl of the sample. Each gel was loaded such that duplicate panels of samples containing the various concentrations of protein were present in 4 consecutive lanes. The gels were run as described above and the gel was cut between the duplicate sample panels. A gel segment containing one panel was placed in each of the following solutions: 30 ml of 2% glacial acetic acid (A); 30 ml of 2% glacial acetic acid in 10% methanol (B); 2% glacial acetic acid in 20% methanol (C); 2% glacial acetic acid in 30% methanol (D); 30 ml of water (E); 30 ml of 10% methanol (F); 30 ml of 20% methanol (G); and 30 ml of 30% methanol (H). The solutions were incubated with the gel segments for 10 minutes at room temperature and gently rotated at 40 rpm to prevent settling of the gel segments in the containers. […]
Protocols using other dyes that have been developed for the sensitive detection of protein sometimes employ the incubation of the gel in solutions containing the stain followed by incubation of the gel in solutions lacking the stain. In order to determine if such a protocol could be used to allow even lower levels of protein to be detected using Promega Green 1, the following study was performed. […]

Structure (SMILES): CCCCCCCC(=O)N(c1ccc(OCC)cc1)c1ccc(C(=C2C=CC(=[N+](CC)Cc3cccc(S(=O)(=O)[O-])c3)C=C2)c2ccc(N(CC)Cc3cccc(S(=O)(=O)O)c3)cc2)cc1 [Promega Green 1]
- capture of protein bands in liquid reservoir [1]: the desired protein bands had been captured by this method
- visibility of partial proteolytic pattern (bovine serum albumin; 30% methanol, 4% acetic acid enhancement): readily apparent in a very short period of time
- interference with Cleveland type protein analysis (bovine serum albumin; Endoprotease Glu C, Endoprotease Lys C, Alkaline Protease): does not interfere with Cleveland type protein analysis
- amount of protein in a band that can be detected ([2]; methanol/acetic acid solutions A-H, 10 min then 60 min): less than 125 ng
- lowest protein per band visible ([2]; post-incubation with dye 1:5000 and 1:10,000 in 30-50% methanol, then without dye): 62.5 ng
- background staining ([2]; solution set H (30% methanol, then 2% acetic acid in 30% methanol)): very little background staining remaining

From patent publication US5705649A, “Protein staining compositions and methods” (Promega Corporation, priority 1995, dated 1998)
